Laboratory results as given in patent US8309577B2, “Quinuclidine compounds as α-7 nicotinic acetylcholine receptor ligands” (Bristol-Myers Squibb Company, priority 2008, dated 2012).

Assays:
[1] = target: T1, α-7 nicotinic acetylcholine receptor channel expressed in HEK 293 cells (Rattus norvegicus, UniProt Q05941); experiment: Ca2+-sensitive fluorescence-based FLIPR assay, α7 nicotinic ACh receptor channel function (agonist); assay type: cell-based; conditions: FLIPR α7 activity rating (EC50, nM), Table 1; HEK 293 cells, agonist Ca2+ flux
T1 construct: expressed in transfected cells
How it was run: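 Potency and efficacy derived from kinetic FLIPR Ca²⁺-flux fluorescence, recorded 3 min after compound addition in Hanks buffer following a 10 s baseline.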

mucosal mast cells = conditions: Kageyama-Yahara et al. 2008; cited from earlier work

T1 sequence (Q05941 23-502): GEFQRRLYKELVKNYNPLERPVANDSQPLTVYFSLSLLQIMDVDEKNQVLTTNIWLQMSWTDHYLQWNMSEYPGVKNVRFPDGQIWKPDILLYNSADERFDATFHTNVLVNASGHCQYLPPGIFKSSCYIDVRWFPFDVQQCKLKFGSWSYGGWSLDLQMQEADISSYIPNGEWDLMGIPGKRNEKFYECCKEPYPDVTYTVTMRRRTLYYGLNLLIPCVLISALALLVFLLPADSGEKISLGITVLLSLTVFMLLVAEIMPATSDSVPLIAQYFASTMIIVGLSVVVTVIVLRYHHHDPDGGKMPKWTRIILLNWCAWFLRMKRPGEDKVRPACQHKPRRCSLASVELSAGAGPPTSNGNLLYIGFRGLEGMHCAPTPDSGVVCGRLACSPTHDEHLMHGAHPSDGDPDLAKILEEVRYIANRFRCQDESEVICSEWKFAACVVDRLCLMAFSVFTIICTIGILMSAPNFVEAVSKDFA

SMILES	melting point [°C]	EC50 [1] [nM]	antigen-induced degranulation of mucosal mast cells (mucosal mast cells)
CSc1cnc(NC2=NC[C@@]3(CN4CCC3CC4)O2)cn1 [Example 250, (R)—N-(5-(Methylthio)pyrazin-2-yl)-4H-1′-azaspiro[oxazole-5,3′-bicyclo[2.2.2]octan]-2-amine]	155 to 160	< 100	
COc1ccc(/C=C2\CCCN=C2c2cccnc2)c(OC)c1 [GTS-21]			inhibits
